# Target: HPK1 (MAP4K1) (Homo sapiens, UniProt Q92918)
# Assay: HPK1 (MAP4K1) kinase Lantha screen assay
# Type: biochemical
# Method: The effect of the compounds on the activity of HPK1 (MAP4K1) kinase were assessed by Lantha screen assay. • 1. 1×kinase buffer was prepared (50 mM HEPES, pH 7.5, 10 mM MgCl2, 4 mM DT • 2. Compound and assay plates preparation: • 2-1) The compound was diluted to 100× of the final desired highest inhibitor concentration in reaction by 100% DMSO. For example, if a compound was tested at […], then a solution at 500 µM in DMSO was prepared in this step. • 2-2) For each tested compound, the compound was transferred in tubes to one well on a 96-well storage plate and serially diluted by transferring […] of 100% DMSO in the next well and so forth for a total of 6 concentrations. • 2-3) 100 μl of 100% DMSO were added to two empty wells to serve as no compound control and no enzyme control in the same 96-well plate. The resulting plate was labeled as the source plate. • 2-4) 40 μl of compound from source plate were transferred to a new 384-well Echo plate as the intermediate plate. 100 nl of each well from the 384-well Echo plate were transferred to a 384-well assay plate in duplicates. For example, A1 of the 384-well Echo plate was transferred to A1 and A2 of the 384-well plate. A2 of the 384-well Echo plate was transferred to A3 and A4 of the 384-well plate, and so on; • 3. Kinase reaction: a solution of MAP4K1 in 1× kinase buffer at 2-fold the final concentration of each reagent in the assay was prepared. 5 μl of kinase solution was added to each well of the assay plate, except for control wells without enzyme (add 5 μl of 1× kinase buffer instead). The plate was then shaken, then incubated at room temperature for 10 min. A substrate solution of Fluorescein-PKC and ATP in 1× kinase reaction buffer at 2-fold of the final concentration of each reagent desired in the assay was prepared. 5 μl of substrate solution was added to each well of the assay plate to start reaction. The plate was shaken, then covered, and incubated at room temperature for 90 minutes.
# Kinase detection: detection solution of 2-fold of final concentration in Antibody Dilution Buffer was prepared. 10 μl of detection solution was added to each well of the assay plate to stop the reaction. The mixtures were mixed briefly with Centrifuge and incubated at room temperature 60 minutes before reading on a plate reader for fluorescence. Data was collected on Envision with excitation at 340 nm and emission at 520 nm and 495 nm.
# Sequence of HPK1 (MAP4K1) (Q92918 whole entry, species assumed): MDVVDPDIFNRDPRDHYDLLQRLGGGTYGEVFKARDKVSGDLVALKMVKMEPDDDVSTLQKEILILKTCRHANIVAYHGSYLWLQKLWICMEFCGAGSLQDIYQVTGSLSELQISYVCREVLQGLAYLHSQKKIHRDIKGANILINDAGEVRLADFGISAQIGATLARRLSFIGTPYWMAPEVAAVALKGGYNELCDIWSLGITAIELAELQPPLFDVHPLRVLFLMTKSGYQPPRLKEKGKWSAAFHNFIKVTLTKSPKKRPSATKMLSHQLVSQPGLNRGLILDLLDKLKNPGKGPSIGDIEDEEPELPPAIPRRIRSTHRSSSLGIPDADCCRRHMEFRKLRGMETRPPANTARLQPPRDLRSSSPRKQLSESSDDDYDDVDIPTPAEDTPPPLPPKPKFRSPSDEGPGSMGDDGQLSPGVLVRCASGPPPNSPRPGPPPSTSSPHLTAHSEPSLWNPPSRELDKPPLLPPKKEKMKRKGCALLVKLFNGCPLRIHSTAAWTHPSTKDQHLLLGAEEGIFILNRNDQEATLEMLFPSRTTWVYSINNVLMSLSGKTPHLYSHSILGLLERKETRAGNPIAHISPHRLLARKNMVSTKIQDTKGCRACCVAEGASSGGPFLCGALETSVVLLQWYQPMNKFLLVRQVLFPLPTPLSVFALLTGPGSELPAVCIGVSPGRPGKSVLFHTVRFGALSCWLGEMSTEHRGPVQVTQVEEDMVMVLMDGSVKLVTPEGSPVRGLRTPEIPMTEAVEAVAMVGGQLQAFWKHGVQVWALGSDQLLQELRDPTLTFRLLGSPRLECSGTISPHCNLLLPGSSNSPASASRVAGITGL
row,SMILES,IC50 [nM]
1,"CNc1ncc2c(n1)N1CCN=C1C(c1cc(NS(=O)(=O)c3cccc(C(F)(F)F)c3)ccc1C)=C2 [Compound 283, N-(4-methyl-3-(2-(methylamino)-8,9-dihydroimidazo[1′,2′:1,6]pyrido[2,3-d]pyrimidin-6-yl)phenyl)-3-(trifluoromethyl)benzenesulfonamide]",> 10000
2,"CNc1ncc2c(n1)N1CCN=C1C(c1cc(NC(=O)c3cncc(C(F)(F)F)n3)ccc1C)=C2 [Compound 146, N-(4-methyl-3-(2-(methylamino)-8,9-dihydroimidazo[1′,2′:1,6]pyrido[2,3-d]pyrimidin-6-yl)phenyl)-6-(trifluoromethyl)pyrazine-2-carboxamide]",> 10000
3,"CNc1ncc2c(n1)N1CCN=C1C(c1nc(NC(=O)c3cc(C(F)(F)F)ccn3)ccc1C)=C2 [Compound 192, N-(5-methyl-6-(2-(methylamino)-8,9-dihydroimidazo[1′,2′:1,6]pyrido[2,3-d]pyrimidin-6-yl)pyridin-2-yl)-4-(trifluoromethyl)picolinamide]",> 10000
4,"CNc1ncc2c(n1)N1CCN=C1C(c1cc(NC(=O)c3cncc(Cl)c3)ccc1C)=C2 [Compound 160, 5-chloro-N-(4-methyl-3-(2-(methylamino)-8,9-dihydroimidazo[1′,2′:1,6]pyrido[2,3-d]pyrimidin-6-yl)phenyl)nicotinamide]",> 10000
5,"CNc1ncc2c(n1)N1CCN=C1C(c1cc(NC(=O)C3(C(=O)Nc4ccc(F)cc4)CC3)c(F)cc1C)=C2 [Compound 343, N-(2-fluoro-4-methyl-5-(2-(methylamino)-8,9-dihydroimidazo[1′,2′:1,6]pyrido[2,3-d]pyrimidin-6-yl)phenyl)-N-(4-fluorophenyl)cyclopropane-1,1-dicarboxamide]",> 10000
6,"CNc1ncc2c(n1)N1CCN=C1C(c1cc(NC(=O)c3nccc(C(F)(F)F)c3Cl)ccc1C)=C2 [Compound 152, 3-chloro-N-(4-methyl-3-(2-(methylamino)-8,9-dihydroimidazo[1′,2′:1,6]pyrido[2,3-d]pyrimidin-6-yl)phenyl)-4-(trifluoromethyl)picolinamide]",100 to 10000
7,"CNc1ncc2c(n1)N1CCN=C1C(c1cc(NC(=O)c3cn(C(C)C)c(=O)n(-c4ccc(F)cc4)c3=O)c(F)cc1C)=C2 [Compound 194, N-(2-fluoro-4-methyl-5-(2-(methylamino)-8,9-dihydroimidazo[1′,2′:1,6]pyrido[2,3-d]pyrimidin-6-yl)phenyl)-3-(4-fluorophenyl)-1-isopropyl-2,4-dioxo-1,2,3,4-tetrahydropyrimidine-5-carboxamide]",100 to 10000
8,"Cc1ccc(NC(=O)c2cc(C(F)(F)F)ccn2)cc1C1=Cc2cnc(Nc3ncccc3F)nc2N2CCN=C12 [Compound 220, N-(3-(2-((3-fluoropyridin-2-yl)amino)-8,9-dihydroimidazo[1′,2′:1,6]pyrido[2,3-d]pyrimidin-6-yl)-4-methylphenyl)-4-(trifluoromethyl)picolinamide]",100 to 10000
9,"Cc1ccc(NC(=O)c2cc(C(F)(F)F)ccn2)cc1C1=Cc2cnc(Nc3ccnn3C)nc2N2CCN=C12 [Compound 235, N-(4-methyl-3-(2-((1-methyl-1H-pyrazol-5-yl)amino)-8,9-dihydroimidazo[1′,2′:1,6]pyrido[2,3-d]pyrimidin-6-yl)phenyl)-4-(trifluoromethyl)picolinamide]",100 to 10000
10,"Cc1ccc(Nc2ncc3c(n2)N2CCN=C2C(c2ccccc2Cl)=C3)cn1 [Compound 101, 6-(2-chlorophenyl)-N-(6-methylpyridin-3-yl)-8,9-dihydroimidazo[1′,2′:1,6]pyrido[2,3-d]pyrimidin-2-amine]",100 to 10000

# Further lines, results first:
row,IC50 [nM],SMILES
1,< 100,"CNc1ncc2c(n1)N1CCN=C1C(c1cc(NC(=O)c3cc(C(F)(F)F)ccn3)c(Cl)cc1C)=C2 [Compound 133, N-(2-chloro-4-methyl-5-(2-(methylamino)-8,9-dihydroimidazo[1′,2′:1,6]pyrido[2,3-d]pyrimidin-6-yl)phenyl)-4-(trifluoromethyl)picolinamide]"
2,< 100,"Cc1ccc(NC(=O)c2cc(C(F)(F)F)ccn2)cc1C1=Cc2cnc(Nc3cn(C)nn3)nc2N2CCN=C12 [Compound 237, N-(4-methyl-3-(2-((1-methyl-1H-1,2,3-triazol-4-yl)amino)-8,9-dihydroimidazo[1′,2′:1,6]pyrido[2,3-d]pyrimidin-6-yl)phenyl)-4-(trifluoromethyl)picolinamide]"
3,< 100,"Cc1ccc(NC(=O)c2cc(C(F)(F)F)ccn2)cc1C1=Cc2cnc(Nc3ccn[nH]3)nc2N2CCN=C12 [Compound 240, N-(3-(2-((1H-pyrazol-5-yl)amino)-8,9-dihydroimidazo[1′,2′:1,6]pyrido[2,3-d]pyrimidin-6-yl)-4-methylphenyl)-4-(trifluoromethyl)picolinamide]"
4,100 to 10000,"CNc1ncc2c(n1)N1CCN=C1C(c1cc(NC(=O)c3nccc(C(F)(F)F)n3)ccc1C)=C2 [Compound 148, N-(4-methyl-3-(2-(methylamino)-8,9-dihydroimidazo[1′,2′:1,6]pyrido[2,3-d]pyrimidin-6-yl)phenyl)-4-(trifluoromethyl)pyrimidine-2-carboxamide]"
5,< 100,"Cc1ccc(Nc2ncc3c(n2)N2CCN=C2C(c2cc(NC(=O)c4cc(C(F)(F)F)ccn4)ccc2C)=C3)c(C)n1 [Compound 211, N-(3-(2-((2,6-dimethylpyridin-3-yl)amino)-8,9-dihydroimidazo[1′,2′:1,6]pyrido[2,3-d]pyrimidin-6-yl)-4-methylphenyl)-4-(trifluoromethyl)picolinamide]"
6,< 100,"CNc1ncc2c(n1)N1C(=NCC13CCCC3)C(c1cc(NC(=O)c3cc(C(F)(F)F)ccn3)ccc1C)=C2 [Compound 131, N-(4-methyl-3-(2′-(methylamino)-8′H-spiro[cyclopentane-1,9′-imidazo[1′,2′:1,6]pyrido[2,3-d]pyrimidin]-6′-yl)phenyl)-4-(trifluoromethyl)picolinamide]"
7,< 100,"Cc1ccc(NC(=O)c2cc(C(F)(F)F)ccn2)cc1C1=Cc2cnc(Nc3cccc(F)c3)nc2N2CCN=C12 [Compound 226, N-(3-(2-((3-fluorophenyl)amino)-8,9-dihydroimidazo[1′,2′:1,6]pyrido[2,3-d]pyrimidin-6-yl)-4-methylphenyl)-4-(trifluoromethyl)picolinamide]"
8,< 100,"Cc1ccc(NC(=O)c2cc(C(F)(F)F)ccn2)cc1C1=Cc2cnc(Nc3cccnc3)nc2N2CCN=C12 [Compound 215, N-(4-methyl-3-(2-(pyridin-3-ylamino)-8,9-dihydroimidazo[1′,2′:1,6]pyrido[2,3-d]pyrimidin-6-yl)phenyl)-4-(trifluoromethyl)picolinamide]"
9,< 100,"Cc1ccncc1Nc1ncc2c(n1)N1CCN=C1C(c1cc(NC(=O)c3cc(C(F)(F)F)ccn3)ccc1C)=C2 [Compound 210, N-(4-methyl-3-(2-((4-methylpyridin-3-yl)amino)-8,9-dihydroimidazo[1′,2′:1,6]pyrido[2,3-d]pyrimidin-6-yl)phenyl)-4-(trifluoromethyl)picolinamide]"
10,< 100,"Cc1ccc(Nc2ncc3c(n2)N2CCN=C2C(c2cc(NC(=O)c4cc(C(F)(F)F)ccn4)ccc2C)=C3)cc1F [Compound 228, N-(3-(2-((3-fluoro-4-methylphenyl)amino)-8,9-dihydroimidazo[1′,2′:1,6]pyrido[2,3-d]pyrimidin-6-yl)-4-methylphenyl)-4-(trifluoromethyl)picolinamide]"
11,100 to 10000,"CNc1ncc2c(n1)N1C[C@@H](C)N=C1C(c1cc(NC(=O)c3cc(C(F)(F)F)ccn3)ccc1C)=C2 [Compound 127, (R)—N-(4-methyl-3-(8-methyl-2-(methylamino)-8,9-dihydroimidazo[1′,2′:1,6]pyrido[2,3-d]pyrimidin-6-yl)phenyl)-4-(trifluoromethyl)picolinamide]"
12,< 100,"Cc1cc(F)c(NC(=O)c2cccc(C(C)(C)C#N)c2)cc1C1=Cc2cnc(NC3COC3)nc2N2CCN=C12 [Compound 180, 3-(2-cyanopropan-2-yl)-N-(2-fluoro-4-methyl-5-(2-(oxetan-3-ylamino)-8,9-dihydroimidazo[1′,2′:1,6]pyrido[2,3-d]pyrimidin-6-yl)phenyl)benzamide]"
13,< 100,"CNc1ncc2c(n1)N1CCN=C1C(c1cc(NC(=O)c3cc(C(F)(F)F)ccn3)c(F)cc1C)=C2 [Compound 139, N-(2-fluoro-4-methyl-5-(2-(methylamino)-8,9-dihydroimidazo[1′,2′:1,6]pyrido[2,3-d]pyrimidin-6-yl)phenyl)-4-(trifluoromethyl)picolinamide]"
